The source of these data is patent US7759369B2, “Pyridine compounds for the treatment of prostaglandin mediated diseases” (Glaxo Group Limited, priority 2004, dated 2010).

Type in all cases: cell-based
The target in one assay is T1, TP receptor (Homo sapiens, UniProt P21731).
T1 construct: expressed in transfected cells; host or cells: CHO-K1
T1 sequence (P21731 1-343): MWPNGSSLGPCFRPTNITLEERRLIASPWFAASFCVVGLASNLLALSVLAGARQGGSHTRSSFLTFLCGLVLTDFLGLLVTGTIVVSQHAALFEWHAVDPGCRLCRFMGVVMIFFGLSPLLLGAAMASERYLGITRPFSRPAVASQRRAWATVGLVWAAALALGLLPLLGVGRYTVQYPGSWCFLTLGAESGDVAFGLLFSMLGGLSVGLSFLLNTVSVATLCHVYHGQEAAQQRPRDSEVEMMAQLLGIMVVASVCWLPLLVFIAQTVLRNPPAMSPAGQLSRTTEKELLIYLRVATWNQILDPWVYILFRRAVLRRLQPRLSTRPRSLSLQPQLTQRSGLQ
The experiment in a line: human TP calcium mobilisation assay (CHO-K1 cells, U46619, FLIPR). The note with it: free bases or sodium salts; read-out: functional pKi, human TP calcium mobilisation assay (converted). As to the method:
To determine if a compound has agonist or antagonist activity at the TP receptor a functional calcium mobilisation assay may be performed. Briefly, the antagonist properties of compounds are assessed by their ability to inhibit the mobilisation of intracellular calcium ([Ca^2+]i) in response to activation of TP receptors by the stable TXA2 mimetic U46619 (9,11-dideoxy-11α,9α-epoxy-methanoprostaglandin F2 α; commercially available from e.g Sigma-Aldrich). Increasing concentrations of antagonist reduce the amount of calcium that a given concentration of U46619 can mobilise. The net effect is to displace the U46619 concentration-effect curve. The amount of calcium produced is assessed using a calcium-sensitive fluorescent dye such as Fluo-4, AM and a suitable instrument such as a Fluorimetric Imaging Plate Reader (FLIPR). Increasing amounts of [Ca^2+]i produced by receptor activation increase the amount of fluorescence produced by the dye and give rise to an increasing signal. The signal may be detected using the FLIPR instrument and the data generated may be analysed with suitable curve-fitting software. The agonist activity of the compounds are determined by their ability to cause an increase in intracellular mobilisation in the absence of U46619.
The human TP calcium mobilisation assay utilises Chinese hamster ovary-K1 (CHO-K1) cells into which a stable (pCIN; BioTechniques 20 (1996): 102-110) vector containing TP cDNA has previously been transfected. Cells are cultured in suitable flasks containing culture medium such as DMEM:F-12 supplemented with 10% v/v foetal calf serum, 2 mM L-glutamine, 0.25 mg/ml geneticin, 100 μM flurbiprofen and 10 μg/ml puromycin.
(§1) For assay, cells are harvested using a proprietary reagent that dislodges cells such as Versene. Cells are re-suspended in a suitable quantity of fresh culture media for introduction into a 96-well plate. Following incubation for 24 hours at 37° C. the culture media is replaced with a medium containing Fluo-4 and the detergent pluronic acid, and a further incubation takes place. Concentrations of compounds are then added to the plate in order to construct concentration-effect curves. This may be performed on the FLIPR in order to assess the agonist properties of the compounds. Concentrations of U46619 are then added to the plate in order to assess the antagonist properties of the compounds.
The data so generated may be analysed by means of a computerised curve-fitting routine. The concentration of compound that elicits a half-maximal inhibition of the calcium mobilisation induced by U46619 (plC50) may then be estimated, and the percentage activation caused by the compounds directly can be used to determine if there is any agonism present.
Background: A change in cytosolic calcium serves as a functional read-out for many receptors and channels.

Another assay concerns the target T2, EP3 receptors (Homo sapiens, UniProt P43115).
T2 construct: expressed in transfected cells; host or cells: CHO-K1
T2 sequence (P43115 1-390): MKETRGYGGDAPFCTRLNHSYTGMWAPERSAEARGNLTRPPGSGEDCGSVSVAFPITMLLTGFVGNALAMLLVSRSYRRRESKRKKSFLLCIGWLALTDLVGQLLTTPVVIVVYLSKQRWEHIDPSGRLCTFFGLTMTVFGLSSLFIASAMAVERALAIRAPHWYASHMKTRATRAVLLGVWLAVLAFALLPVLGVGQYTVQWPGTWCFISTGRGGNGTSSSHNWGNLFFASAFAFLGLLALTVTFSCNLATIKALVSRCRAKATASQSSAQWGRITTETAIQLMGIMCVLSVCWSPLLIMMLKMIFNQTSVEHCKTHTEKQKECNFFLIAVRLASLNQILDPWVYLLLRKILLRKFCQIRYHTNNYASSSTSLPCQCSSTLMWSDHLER
The experiment in a line: human EP3 calcium mobilisation assay (CHO-K1 cells, PGE2, FLIPR). The settings on record: free bases or sodium salts; averages of a number of experiments; read-out: functional pKi value, human EP3 calcium mobilisation assay (converted). As to the method: (§2) Briefly, the antagonist properties of compounds are assessed by their ability to inhibit the mobilisation of intracellular calcium ([Ca^2+]i) in response to activation of EP1 or EP3 receptors by the natural agonist hormone prostaglandin E2 (PGE2). Increasing concentrations of antagonist reduce the amount of calcium that a given concentration of PGE2 can mobilise. The net effect is to displace the PGE2 concentration-effect curve to higher concentrations of PGE2. The amount of calcium produced is assessed using a calcium-sensitive fluorescent dye such as Fluo-4, AM and a suitable instrument such as a Fluorimetric Imaging Plate Reader (FLIPR). Increasing amounts of [Ca^2+]i produced by receptor activation increase the amount of fluorescence produced by the dye and give rise to an increasing signal. The signal may be detected using the FLIPR instrument and the data generated may be analysed with suitable curve-fitting software.
(§3) The human EP1 or EP3 calcium mobilisation assay (hereafter referred to as ‘the calcium assay’) utilises Chinese hamster ovary-K1 (CHO-K1) cells into which a stable (pCIN; BioTechniques 20 (1996): 102-110) vector containing either EP1 or EP3 cDNA has previously been transfected. Cells are cultured in suitable flasks containing culture medium such as DMEM:F-12 supplemented with 10% v/v foetal calf serum, 2 mM L-glutamine, 0.25 mg/ml geneticin, 100 μM flurbiprofen and 10 µg/ml puromycin.
as §1, with “384-well” for “96-well”, “PGE2” for “U46619”
(§4) The data so generated may be analysed by means of a computerised curve-fitting routine. The concentration of compound that elicits a half-maximal inhibition of the calcium mobilisation induced by PGE2 (pIC50) may then be estimated.

Another assay addresses T3, EP1 receptors (Homo sapiens, UniProt P34995).
T3 sequence (P34995 1-402): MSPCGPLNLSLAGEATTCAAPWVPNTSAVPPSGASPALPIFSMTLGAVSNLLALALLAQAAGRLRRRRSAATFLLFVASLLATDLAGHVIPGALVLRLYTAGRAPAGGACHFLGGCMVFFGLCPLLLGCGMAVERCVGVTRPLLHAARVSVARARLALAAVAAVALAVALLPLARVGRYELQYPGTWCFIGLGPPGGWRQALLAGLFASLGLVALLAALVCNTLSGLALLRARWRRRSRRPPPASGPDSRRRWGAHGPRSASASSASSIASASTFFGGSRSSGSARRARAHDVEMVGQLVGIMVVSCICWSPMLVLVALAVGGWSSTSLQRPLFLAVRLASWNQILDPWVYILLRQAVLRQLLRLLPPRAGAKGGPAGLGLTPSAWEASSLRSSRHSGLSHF
The experiment in a line: human EP1 calcium mobilisation assay (CHO-K1 cells, PGE2, FLIPR). The arrangement: expressed in transfected cells; host or cells: CHO-K1. The note with it: free bases or sodium salts; averages of a number of experiments; read-out: functional pKi value, human EP1 calcium mobilisation assay (converted). How it is done:
as §2, §3
as §1, with “384-well” for “96-well”, “PGE2” for “U46619”
as §4

Where a name gives a salt, the structure may show the parent alone. Where only a bound is given, the exact number is not on record here.

With `O=C(O)c1cccc(Cc2cc(Cl)ccc2OCc2ccccc2)n1` [Example 1, 6-({5-Chloro-2-[(phenylmethyl)oxy]phenyl}methyl)-2-pyridinecarboxylic acid], the Ki on TP receptor was greater than 1000 nM. As for `C=C(C)COc1ccc(Cl)cc1Cc1cccc(C(=O)O)n1` [Example 2, 6-({5-Chloro-2-[(2-methyl-2-propen-1-yl)oxy]phenyl}methyl)-2-pyridinecarboxylic acid], the figures for the Ki at EP3 receptors and on EP1 receptors were greater than 10000 nM and no more than 31.6 nM, respectively. On to `O=C(O)c1cccc(Cc2cc(Cl)ccc2OCc2ccc(F)cc2)n1` [Example 5, sodium 6-[(5-chloro-2-{[(4-fluorophenyl)methyl]oxy}phenyl)methyl]-2-pyridinecarboxylate], for which the Ki on TP receptor and at EP1 receptors was less than 1000 nM in each case.

Turning to `O=C(O)c1cccc(Cc2cc(Cl)ccc2OCc2c(F)cc(F)cc2F)n1` [Example 6, Sodium 6-[(5-chloro-2-{[(2,4,6-trifluorophenyl)methyl]oxy}phenyl)methyl]-2-pyridinecarboxylate], the Ki at TP receptor and at EP1 receptors was less than 1000 nM each time. On to `O=C(O)c1cccc(Cc2cc(Cl)ccc2OCc2ccc(F)c(F)c2F)n1` [Example 7, Sodium 6-[(5-chloro-2-{[(2,3,4-trifluorophenyl)methyl]oxy}phenyl)methyl]-2-pyridinecarboxylate], for which the Ki at TP receptor and on EP1 receptors was less than 1000 nM in each case.

In the case of `O=C(O)c1cccc(Cc2cc(Cl)ccc2OCc2ccccc2F)n1` [Example 8, Sodium 6-[(5-chloro-2-{[(2-fluorophenyl)methyl]oxy}phenyl)methyl]-2-pyridinecarboxylate], the Ki at TP receptor is less than 1000 nM; at EP3 receptors it was greater than 10000 nM; on EP1 receptors, less than 1000 nM.

For the compound `O=C(O)c1cccc(Cc2cc(Cl)ccc2OCc2ccccc2Cl)n1` [Example 13, Sodium 6-[(5-chloro-2-{[(2-chlorophenyl)methyl]oxy}phenyl)methyl]-2-pyridinecarboxylate], the Ki at TP receptor was greater than 1000 nM; at EP1 receptors it was no more than 31.6 nM.

In the case of `CC(C)Oc1ccc(Cl)cc1Cc1cccc(C(=O)O)n1` [Example 16, Sodium 6-({5-chloro-2-[(1-methylethyl)oxy]phenyl}methyl)-2-pyridinecarboxylate], the Ki at EP3 receptors was greater than 10000 nM; at EP1 receptors, less than 1000 nM. On the same counts, the results for `O=C(O)c1cccc(Cc2cc(Cl)ccc2OCC2CC2)n1` [Example 17, Sodium 6-({5-chloro-2-[(cyclopropylmethyl)oxy]phenyl}methyl)-2-pyridinecarboxylate] are greater than 10000 nM and less than 1000 nM. For the compound `O=C(O)c1cccc(Cc2cc(Cl)ccc2OCC2CCCCC2)n1` [Example 18, Sodium 6-({5-chloro-2-[(cyclohexylmethyl)oxy]phenyl}methyl)-2-pyridinecarboxylate], at EP1 receptors, the Ki is no more than 31.6 nM. As to `O=C(O)c1cccc(Cc2cc(Cl)ccc2OC2CCCC2)n1` [Example 19, Sodium 6-{[5-chloro-2-(cyclopentyloxy)phenyl]methyl}-2-pyridinecarboxylate], the Ki was greater than 10000 nM on EP3 receptors and less than 1000 nM on EP1 receptors.

With `CCC(CC)COc1ccc(Cl)cc1Cc1cccc(C(=O)O)n1` [Example 20, Sodium 6-({5-chloro-2-[(2-ethylbutyl)oxy]phenyl}methyl)-2-pyridinecarboxylate], the Ki on EP1 receptors is less than 1000 nM. In the case of `O=C(NS(=O)(=O)c1cc(Cl)cc(Cl)c1)c1cccc(Cc2cc(Cl)ccc2OCc2ccc(Cl)cc2F)n1` [Example 31], the Ki at EP3 receptors is greater than 10000 nM; on EP1 receptors, greater than 1000 nM.

In the case of `COc1ccc(S(=O)(=O)NC(=O)c2cccc(Cc3cc(Cl)ccc3OCc3ccc(Cl)cc3F)n2)cc1` [Example 32, 6-[(5-Chloro-2-{[(4-chloro-2-fluorophenyl)methyl]oxy}-phenyl)methyl]-N-{[4-methoxyphenyl]suiphonyl}-2-pyridine-carboxamide], the Ki on EP3 receptors was greater than 10000 nM; on EP1 receptors it was greater than 1000 nM. On the same counts, the results for `CC(=O)Nc1ccc(S(=O)(=O)NC(=O)c2cccc(Cc3cc(Cl)ccc3OCc3ccc(Cl)cc3F)n2)cc1` [Example 35, N-{[4-(Acetylamino)phenyl]-sulphonyl}-6-[(5-chloro-2-{[(4-chloro-2-fluorophenyl)methyl]-oxy}phenyl)methyl]-2-pyridine-carboxamide] are greater than 10000 nM and less than 1000 nM.

For `O=C(O)c1cc(Cl)cc(Cc2cc(Cl)ccc2OCc2ccc(Cl)cc2F)n1` [Example 37, 4-Chloro-6-[(5-chloro-2-{[(4-chloro-2-fluorophenyl)-methyl]oxy}phenyl)methyl]-2-pyridinecarboxylic acid, sodium salt], on EP1 receptors, the Ki is no more than 31.6 nM. In the case of `Cc1ccc(Cc2cc(Cl)ccc2OCc2ccc(Cl)cc2F)nc1C(=O)O` [Example 40, 6-[(5-Chloro-2-{[(4-chloro-2-fluorophenyl)methyl]oxy}-phenyl)methyl]-3-methyl-2-pyridinecarboxylic acid, sodium salt], the figures for the Ki on EP3 receptors and on EP1 receptors were greater than 10000 nM and greater than 1000 nM, respectively.
